Measurements from ChEMBL document CHEMBL5620423, “Highly-tumor-targeted PAD4 inhibitors with PBA modification inhibit tumors in vivo by specifically inhibiting the PAD4-H3cit-NETs pathway in neutrophils” (Eur J Med Chem, 2023).
Calls of active or inactive are those of the source. The rule behind the calls is not given here.

Experiments:
4T1 [1] = assay: Cytotoxicity against mouse 4T1 cells assessed as reduction in cell viability measured after 48 hrs by MTT assay; conditions: 4T1, 48 h
Sarcoma-180 [2] = assay: Antitumor activity against Sarcoma-180 mouse model assessed as tumor weight at 10 umol/kg (reference value: 1.65 +/-0.2 gms); type: functional; conditions: dose 10 µmol/kg
Sarcoma-180 [3] = assay: Antitumor activity against Sarcoma-180 mouse model assessed as inhibition of tumor growth at 10 umol/kg; type: functional
[4] = target: Protein-arginine deiminase type-4 (Homo sapiens, UniProt Q9UM07); assay: Inhibition of PAD4 (unknown origin) using BAEE as substrate by colorimetric analysis
[5] = target: Protein-arginine deiminase type-4 (Mus musculus) (UniProt Q9Z183); assay: Inhibition of PAD4 in mouse bone marrow neutrophils assessed as reduction in H3 cit expression by measuring red filamentous histone structure at 50 uM measured after 48 hrs by Hoechst33342 staining based confocal laser scanning microscopy; type: cell-based; conditions: Neutrophil
4T1 [6] = assay: Antitumor activity against mouse 4T1 cells xenografted in BALB/c mouse assessed as reduction in tumor volume at 10 umol/kg, iv for 21 days; type: functional, organism-based; conditions: dose 10.0 µmol/kg, time 21.0 day
4T1 [7] = assay: Antitumor activity against mouse 4T1 cells xenografted in BALB/c mouse assessed as reduction in tumor weight at 10 umol/kg, iv for 21 days; type: functional, organism-based; conditions: dose 10.0 µmol/kg, time 21.0 day
[8] = Toxicity in BALB/c mouse xenografted with mouse 4T1 cells assessed as decrease in body weight at 10 umol/kg, iv measured after 9 to 15 days; type: organism-based; conditions: in vivo, time 9-15 day, dose 10 µmol/kg
4T1 [9] = assay: Anti-metastatic activity against mouse 4T1 cells xenografted in BALB/c mouse assessed as reduction in number of lung metastatic tumor nodules at 10 umol/kg, iv for 21 days; type: functional, organism-based; conditions: dose 10.0 µmol/kg, time 21.0 day
[10] = Hepatotoxicity in BALB/c mouse xenografted with mouse 4T1 cells assessed as reduction in serum ALT level at 10 umol/kg, iv for 21 days; type: toxicity, organism-based; conditions: in vivo, 504 h, dose 10 µmol/kg, time 21 day
[11] = Nephrotoxicity in BALB/c mouse xenografted with mouse 4T1 cells assessed as […] in serum creatinine level at 10 umol/kg, iv for 21 days; type: toxicity, organism-based; conditions: in vivo, 504 h, dose 10 µmol/kg, time 21 day
[12] = Nephrotoxicity in BALB/c mouse xenografted with mouse 4T1 cells assessed as reduction in serum BUN level at 10 umol/kg, iv for 21 days; type: toxicity, organism-based; conditions: in vivo, 504 h, dose 10 µmol/kg, time 21 day

Sequence of Protein-arginine deiminase type-4 (Q9UM07 whole entry): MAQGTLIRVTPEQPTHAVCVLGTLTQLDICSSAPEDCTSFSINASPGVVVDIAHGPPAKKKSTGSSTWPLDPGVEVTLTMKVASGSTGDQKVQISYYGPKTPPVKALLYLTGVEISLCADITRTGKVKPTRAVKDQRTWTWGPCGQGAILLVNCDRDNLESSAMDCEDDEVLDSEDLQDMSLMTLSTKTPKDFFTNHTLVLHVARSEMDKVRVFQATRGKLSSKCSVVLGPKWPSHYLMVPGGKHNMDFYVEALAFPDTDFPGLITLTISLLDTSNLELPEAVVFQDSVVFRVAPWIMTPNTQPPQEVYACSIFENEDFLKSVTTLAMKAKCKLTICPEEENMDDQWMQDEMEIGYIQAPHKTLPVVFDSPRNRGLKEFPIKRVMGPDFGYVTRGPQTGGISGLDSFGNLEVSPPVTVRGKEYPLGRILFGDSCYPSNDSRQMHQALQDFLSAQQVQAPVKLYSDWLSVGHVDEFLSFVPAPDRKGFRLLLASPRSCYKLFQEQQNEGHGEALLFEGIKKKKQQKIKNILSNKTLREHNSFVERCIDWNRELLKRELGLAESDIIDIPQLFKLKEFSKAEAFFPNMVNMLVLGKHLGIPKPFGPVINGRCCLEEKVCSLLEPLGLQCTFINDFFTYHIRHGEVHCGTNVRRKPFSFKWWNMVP
Sequence of Protein-arginine deiminase type-4 (Mus musculus) (Q9Z183 whole entry): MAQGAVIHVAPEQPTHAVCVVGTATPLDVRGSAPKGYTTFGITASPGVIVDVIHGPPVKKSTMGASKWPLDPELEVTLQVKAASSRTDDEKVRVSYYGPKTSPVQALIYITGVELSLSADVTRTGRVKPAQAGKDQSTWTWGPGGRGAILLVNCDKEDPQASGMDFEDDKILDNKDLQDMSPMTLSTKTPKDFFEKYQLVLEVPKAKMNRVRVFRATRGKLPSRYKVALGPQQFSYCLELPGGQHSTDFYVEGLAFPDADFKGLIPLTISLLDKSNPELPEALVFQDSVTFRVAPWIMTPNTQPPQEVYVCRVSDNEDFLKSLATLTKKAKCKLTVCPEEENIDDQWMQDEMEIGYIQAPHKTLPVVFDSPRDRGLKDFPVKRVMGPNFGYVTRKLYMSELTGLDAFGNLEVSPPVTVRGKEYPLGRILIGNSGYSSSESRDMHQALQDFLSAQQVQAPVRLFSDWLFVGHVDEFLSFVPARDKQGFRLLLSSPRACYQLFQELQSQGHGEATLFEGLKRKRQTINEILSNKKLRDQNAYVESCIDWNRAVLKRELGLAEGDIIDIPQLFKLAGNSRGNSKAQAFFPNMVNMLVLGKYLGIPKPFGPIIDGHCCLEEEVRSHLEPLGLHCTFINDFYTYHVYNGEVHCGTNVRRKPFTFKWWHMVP

N=C(CCl)NCCC[C@H](NC(=O)c1ccc(B(O)O)cc1)C(=O)NCc1ccccc1
IC50 (4T1 [1]): > 100 µM
Activity (Sarcoma-180 [2]): 0.98 g
inhibition in vivo at 10 µmol/kg (Sarcoma-180 [3]): 40.3%

N=C(CCl)NCCC[C@H](NC(=O)c1cccc(B(O)O)c1)C(=O)NCc1ccccc1
IC50 (4T1 [1]): > 100 µM
Activity (Sarcoma-180 [2]): 1.04 g
inhibition in vivo at 10 µmol/kg (Sarcoma-180 [3]): 36.7%

CN(C)c1ccc2cc(C(=O)N[C@@H](CCCNC(=N)CCl)C(=O)NCc3ccccc3)ccc2c1
IC50 [4]: 2.86 µM
IC50 (4T1 [1]): 11.9 µM
Activity (Sarcoma-180 [2]): 0.94 g
inhibition in vivo at 10 µmol/kg (Sarcoma-180 [3]): 42.7%
inhibition [5]: Active
Activity (4T1 [6]): Active
Activity (4T1 [7]): Active
Activity [8]: Toxic
Activity (4T1 [9]): Active
Activity [10]: Toxic
Activity [11]: Toxic
Activity [12]: Toxic

N=C(CCl)NCCC[C@H](NC(=O)c1cc([N+](=O)[O-])c2nonc2c1)C(=O)NCc1ccc(B(O)O)cc1
IC50 (4T1 [1]): > 100 µM
Activity (Sarcoma-180 [2]): 0.87 g
inhibition in vivo at 10 µmol/kg (Sarcoma-180 [3]): 47.4%

N=C(CCl)NCCC[C@H](NC(=O)c1cc(B(O)O)cc([N+](=O)[O-])c1)C(=O)NCc1ccccc1
IC50 (4T1 [1]): > 100 µM
Activity (Sarcoma-180 [2]): 1.19 g
inhibition in vivo at 10 µmol/kg (Sarcoma-180 [3]): 27.6%

N=C(CCl)NCCC[C@H](NC(=O)c1ccc(F)c(B(O)O)c1)C(=O)NCc1ccccc1
IC50 (4T1 [1]): > 100 µM
Activity (Sarcoma-180 [2]): 1.03 g
inhibition in vivo at 10 µmol/kg (Sarcoma-180 [3]): 37.5%

N=C(CCl)NCCC[C@H](NC(=O)c1ccccc1B(O)O)C(=O)NCc1ccccc1
IC50 (4T1 [1]): > 100 µM
Activity (Sarcoma-180 [2]): 1 g
inhibition in vivo at 10 µmol/kg (Sarcoma-180 [3]): 39.2%
